Experimental data: patent US8354522B2, “Immunostimulatory oligoribonucleotides” (Coley Pharmaceutical GmbH, priority 2005, dated 2013)

Key:
Type in all cases: cell-based
CD123+ purified pDC = experiment: CD86 surface marker expression upon human pDC stimulation (FACS); settings: 1 μM ORN complexed to 25 μg/ml DOTAP, 16 h
Protocol: FIG. 10 is a series of graphs showing surface marker expression upon human pDC stimulation with AU-rich or GU-rich ORN. CD123+ purified pDC (FIGS. 10a and 10b) or isolated monocytes (FIG. 10c) were incubated with 1 μM ORN complexed to 25 μg/ml DOTAP or DOTAP alone (FIG. 10a) or indicated amounts of ORN complexed to DOTAP or DOTAP alone (FIGS. 10b-10c). After 16 h cells were harvested and stained with CD123, CD11c and HLA-DR antibodies (FIGS. 10a and 10b) or CD14 and CD19 (FIG. 10c). Cell surface marker activation was measured by CD86 (FIGS. 10a and 10b) or CD80 (FIG. 10c) expression. […] FIG. 10b is a graph illustrating that CD86 surface marker expression upon human pDC stimulation is dose-dependent.
CD123+ purified pDC (FIGS. 10a and 10b) or isolated monocytes (FIG. 10c) were incubated with 1 μM ORN complexed to 25 μg/ml DOTAP or DOTAP alone (FIG. 10a) or indicated amounts of ORN complexed to DOTAP or DOTAP alone (FIGS. 10b-10c). After 16 h cells were harvested and stained with CD123, CD11c and HLA-DR antibodies (FIGS. 10a and 10b) or CD14 and CD19 (FIG. 10c). […] This activation was determined to be dose-dependent (FIG. 10b).

human TLR8 = target: T1, human TLR8 (Homo sapiens, UniProt Q9NR97); experiment: NFκB-luciferase reporter in HEK-293 cells stably transfected with human TLR8; settings: HEK-293 with human TLR8, ORN complexed to DOTAP, 16 hours
T1 construct: expressed in transfected cells
T1 sequence (Q9NR97 27-1041): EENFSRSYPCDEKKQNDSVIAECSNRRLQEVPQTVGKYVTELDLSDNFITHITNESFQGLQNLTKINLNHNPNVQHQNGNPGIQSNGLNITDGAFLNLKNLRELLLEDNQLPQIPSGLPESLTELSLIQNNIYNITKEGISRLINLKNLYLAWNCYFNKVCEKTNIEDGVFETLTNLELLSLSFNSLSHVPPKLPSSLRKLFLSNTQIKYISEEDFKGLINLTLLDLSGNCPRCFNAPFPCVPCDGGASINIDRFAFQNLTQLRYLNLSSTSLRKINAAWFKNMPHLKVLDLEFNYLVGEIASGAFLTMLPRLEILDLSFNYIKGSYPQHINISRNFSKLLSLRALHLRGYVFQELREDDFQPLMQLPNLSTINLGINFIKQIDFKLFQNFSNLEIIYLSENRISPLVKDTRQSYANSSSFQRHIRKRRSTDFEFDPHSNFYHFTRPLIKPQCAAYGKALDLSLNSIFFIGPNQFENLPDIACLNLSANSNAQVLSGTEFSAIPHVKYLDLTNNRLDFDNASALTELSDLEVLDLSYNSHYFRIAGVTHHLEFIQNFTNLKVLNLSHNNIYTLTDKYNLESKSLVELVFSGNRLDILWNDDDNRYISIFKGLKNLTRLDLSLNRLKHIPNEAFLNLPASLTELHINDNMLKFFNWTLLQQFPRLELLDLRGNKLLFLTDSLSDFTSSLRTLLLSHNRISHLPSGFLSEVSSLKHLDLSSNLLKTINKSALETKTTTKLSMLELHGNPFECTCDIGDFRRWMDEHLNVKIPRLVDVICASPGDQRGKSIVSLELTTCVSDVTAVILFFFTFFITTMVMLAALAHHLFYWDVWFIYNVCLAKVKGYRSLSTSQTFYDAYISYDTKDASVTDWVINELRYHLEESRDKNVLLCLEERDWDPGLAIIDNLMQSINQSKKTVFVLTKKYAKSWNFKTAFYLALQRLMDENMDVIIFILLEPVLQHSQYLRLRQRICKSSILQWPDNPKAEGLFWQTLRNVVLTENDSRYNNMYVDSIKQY
Protocol: Stable-transfected HEK-293 cells with NFκB-luciferase read out reporter and human TLR8 were stimulated for 16 hours with indicated ORN. After 16 hours the supernatants were removed, the cells lysed and the luciferase activity or cytokine level was measured. FIGS. 9a and 9b show fold induction of NFκB-luciferase after stimulus.
Unresponsive HEK-293 cells were stably transfected with human TLR3 or TLR8 expression plasmid and NFκB-luciferase reporter gene construct. Cells were incubated with the indicated ORN sequences (10 μM complexed to 50 μg/ml DOTAP) or control stimuli (10 μM R-848, 50 μg/ml polyIC, 3.3 μM ODN 10103 or 50 μg/ml DOTAP) for 16 hours. NFκB-activation was measured by assaying luciferase activity. Results are given as fold induction above background (medium). One representative experiment of 6 independent repetitions is presented (FIG. 9a).
Stable-transfected HEK-293 cells expressing human TLR8 were stimulated with indicated concentrations of ORN complexed to DOTAP (50 μg/ml->1/3 dilution) or DOTAP alone (50 μg/ml->1/3 dilution) for 16 hours. NFκB activation was measured by assaying luciferase activity. Results are given as fold induction above background (medium). […]
Unresponsive HEK-293 cells were stably transfected with human TLR8 expression plasmid and NFκB-luciferase reporter gene construct. […] NFκB-activation was measured by assaying luciferase activity. […]

Bovine PBMC = experiment: Cytokine production by bovine PBMC (48 hours, ELISA); settings: 10 μg/ml (H.D.) and 2.5 μg/ml (L.D.)
Protocol: FIG. 11 is a set of bar graphs showing differences between TLR8 ORN (SEQ ID NO:13) and TLR7/8 ORN (SEQ ID NO:21). SEQ ID NO:5 ORN was used as a control. Bovine PBMC were incubated with either 10 μg/ml ORN (HD) or 2.5 μg/ml ORN (LD) for 48 hours. Supernatants were collected and analyzed by ELISA. FIGS. 11a-c show the level of IL-12, IFN-γ, and TNF-alpha, respectively.
The assay was repeated with a TLR8 ORN (SEQ ID NO:13), a TLR 7/8 ORN (SEQ ID NO:21) and a control ORN (SEQ ID NO:5) (Table 3) at both a high dose (H.D., 10 μg/ml) and a low dose (L.D., 2.5 μg/ml).

| Substance | CD86 surface marker expression (CD123+ purified pDC) | human TLR8 signaling (NFκB-luciferase fold induction) (human TLR8) | IFN-γ production (Bovine PBMC) | IL-12 production (Bovine PBMC) | TNF-alpha production (Bovine PBMC) |
| --- | --- | --- | --- | --- | --- |
| U*U*A*U*U*A*U*U*A*U*U*A*U*U*A*U*U*A*U*U (UUAUUAUUAUUAUUAUUAUU; chemistry not fully specified) [SEQ ID NO: 13] | very little CD86 activation | Stimulate Specific Human TLR8 Signaling in a Dose Dependent Manner | stimulated production of IFN-γ |  |  |
| U*U*G*U*U*G*U*U*G*U*U*G*U*U*G*U*U*G*U*U (UUGUUGUUGUUGUUGUUGUU; listed as RNA, chemistry not fully specified) [SEQ ID NO: 21] | significant CD86 activation | Stimulate Specific Human TLR8 Signaling in a Dose Dependent Manner | stimulated production of IFN-γ | significant production of IL-12 and TNF-alpha | significant production of IL-12 and TNF-alpha |
